Experiments:
Type in all cases: cell-based
[1] = tested on: Klebsiella pneumoniae 8; assay: Test 8: synergistic activity in various combination ratios (isobologram, growth); parameters: key: the symbol "+" means that the test microorganism grew; the symbol "-" means that the test microorganism did not grow
Description: Into a Nutrient broth (Difco) containing prescribed amounts of monosodium salt of 3-(N-formyl-N-hydroxyamino)-propylphosphonic acid and gentamicin sulfate, was inoculated 0.5% of 10-fold dilution of cultured broth of pathogen which was cultured overnight in Nutrient broth (Eiken). After the incubation was carried out at 37° C. for 18 hours, the growth of the test organism was observed.

[2] = tested on: Enterobacter cloacae 1401-4; assay: Tests 2 and 3: MIC and synergism (FIC) in vitro; settings: 14014, E. cloacae 1401-4, Nutrient agar, 10^5 cells/ml, 37° C., 20 hours
Description: (§1) On a Nutrient agar (Difco) containing prescribed amount of each of monosodium salt of 3-(N-formyl-N-hydroxyamino)propylphosphonic acid, monosodium salt of ampicillin and a mixture of 3-(N-formyl-N-hydroxyamino)propylphosphonic acid and monosodium salt of ampicillin (1:1 by weight), there was streaked a loopful of cultured broth of each pathogen, which was cultured overnight in Nutrient broth (Difco), in a concentration of 10^5 cells/ml. After the incubation was carried out at 37° C. for 20 hours, MIC values were determined.
(§2) FIC values and FIC Index were calculated in substantially the same manner as described in Test 1.
(§3) Synergistic activity of 3-(N-formyl-N-hydroxyamino)propylphosphonic acid and cefazolin; that of 3-(N-formyl-N-hydroxyamino)propylphosphonic acid and ticarcillin; and that of 3-(N-formyl-N-hydroxyamino)propylphosphonic acid and nocardicin A were tested in vitro in substantially the same manner as described in the above Test 2.

[3] = tested on: Klebsiella pneumoniae NCTC 418; assay: Tests 2 and 3: MIC and synergism (FIC) in vitro; settings: NCTC418, 20 h
Description: as §1, §2, §3

[4] = tested on: Proteus mirabilis 1432-75; assay: Tests 2 and 3: MIC and synergism (FIC) in vitro; settings: Proteus mirabilis, 143275, 20 h
Description: as §1, §2, §3

[5] = tested on: Serratia marcescens 1421-4; assay: Tests 2 and 3: MIC and synergism (FIC) in vitro; settings: 14214, S. marcescens 1421-4, Nutrient agar, 10^5 cells/ml, 37° C., 20 hours
Description: as §1, §2, §3

[6] = tested on: Salmonella typhimurium 1406; assay: Tests 2 and 3: MIC and synergism (FIC) in vitro; settings: Salmonella enterica, 20 h
Description: as §1, §2, §3

[7] = tested on: Staphylococcus epidermidis 1601-1; assay: Tests 2 and 3: MIC and synergism (FIC) in vitro; settings: 16011, S. epidermidis 1601-1, Nutrient agar, 10^5 cells/ml, 37° C., 20 hours
Description: as §1, §2, §3

Question: How did the “growth of test microorganism” value ([1]; gentamicin sulfate 0, phosphonic acid 0.78 mcg/ml, 37° C., 18 hours) turn out when `O=CN(O)CCCP(=O)(O)O` [3-(N-formyl-N-hydroxyamino)propylphosphonic acid] was run?
Answer: +

Question: What about the “growth of test microorganism” value ([1]; gentamicin sulfate 0, phosphonic acid 1.56 mcg/ml) of the same compound?
Answer: +

Question: And the “growth of test microorganism” value ([1]; gentamicin sulfate 0, phosphonic acid 3.13 mcg/ml)?
Answer: +

Question: And the “growth of test microorganism” value ([1]; gentamicin sulfate 0, phosphonic acid 6.25 mcg/ml)?
Answer: +

Question: And the “growth of test microorganism” value ([1]; gentamicin sulfate 0, phosphonic acid 12.5 mcg/ml)?
Answer: +

Question: And the “growth of test microorganism” value ([1]; gentamicin sulfate 0, phosphonic acid 25 mcg/ml)?
Answer: -

Question: For `CC1(C)S[C@@H]2[C@H](NC(=O)[C@H](C(=O)O)c3ccsc3)C(=O)N2[C@H]1C(=O)O` [ticarcillin], which MIC [2] is on record?
Answer: 50 µg/mL

Question: What about the MIC [3] of the same compound?
Answer: 100 µg/mL

Question: And the MIC [4]?
Answer: 0.78 µg/mL

Question: What about the MIC [5] of the same compound?
Answer: 25 µg/mL

Question: And the MIC [6]?
Answer: 1.56 µg/mL

Question: What about the MIC [7] of the same compound?
Answer: 3.13 µg/mL

Question: gentamicin was tested. Which “growth of test microorganism” value ([1]; gentamicin sulfate 0.001, phosphonic acid 0 mcg/ml) did it give?
Answer: +

Question: And the “growth of test microorganism” value ([1]; gentamicin sulfate 0.003, phosphonic acid 0 mcg/ml)?
Answer: +

Question: And the “growth of test microorganism” value ([1]; gentamicin sulfate 0.006, phosphonic acid 0 mcg/ml)?
Answer: +

Question: What about the “growth of test microorganism” value ([1]; gentamicin sulfate 0.01, phosphonic acid 0 mcg/ml) of the same compound?
Answer: +

Question: And the “growth of test microorganism” value ([1]; gentamicin sulfate 0.025, phosphonic acid 0 mcg/ml)?
Answer: +

Question: What about the “growth of test microorganism” value ([1]; gentamicin sulfate 0.05, phosphonic acid 0 mcg/ml) of the same compound?
Answer: -

From patent publication US4268503A, “Antibacterial composition” (Fujisawa Pharmaceutical Co., Ltd., priority 1979, dated 1981)
